Data taken from patent US5910504A, “Hetero-aromatic ring substituted phenyloxazolidinone antimicrobials” (Pharmacia & Upjohn, priority 1997, dated 1999).
In brackets after ≈: the same amount, converted by molar mass. Several values for one entry are separate records, joined by “and”; a condition that tells them apart may be missing. Identical values can stand only once. Like-named read-outs stand apart in the source and are kept apart here.

Key:
[1] = test system: S. aureus, UC 9213; assay: In vitro activity: minimum inhibitory concentration (MIC) by agar dilution, S. aureus; format: cell-based; details: Staphylococcus aureus
Excerpt: (§1) The oxazolidinone antibacterial agents of this invention have useful activity against a variety of organisms. The in vitro activity of compounds of this invention can be assessed by standard testing procedures such as the determination of minimum inhibitory concentration (MIC) by agar dilution as desribed in "Methods for Dilution Antimicrobial Susceptibility Tests for Bacteria That Grow Aerobically" (MFT) published January 1983 by the National Committee for Clinical Laboratory Standards, 771 East Lancaster Avenue, Villanova, Pa. 19084, USA. The activity of selected compounds of this invention against Staphylococcus aureus and Streptococcus pneumoniae are shown in Table 1.

[2] = test system: S. pneumoniae, UC 9912; assay: In vitro activity: minimum inhibitory concentration (MIC) by agar dilution, S. pneumoniae; format: cell-based; details: Streptococcus pneumoniae
Excerpt: as §1

[3] = test system: S. aureus, UC 9213; assay: In vivo antimicrobial activity, Murine Assay procedure; design: species or system Staphylococcus aureus (infected female mice); details: oral or subcutaneous; for ED50: Staphylococcus aureus, UC9213, 144 h
Protocol: Antimicrobial activity was tested in vivo using the Murine Assay procedure. Groups of female mice (six mice of 18-20 grams each) were injected intraperitoneally with bacteria which were thawed just prior to use and suspended in brain heart infusion with 4% brewers yeast UC9213 (Staphylococcus aureus) or brain heart infusion (Streptococcus species). Antibiotic treatment at six dose levels per drug was administered one hour and five hours after infection by either oral intubation or subcutaneous ("subcut.") routes. Survival was observed daily for six days. ED50 values based on mortality ratios were calculated using probit analysis. The subject compounds were compared against a well-known antimicrobial (Vancomycin) as a control.

[4] = UC9213, agar dilution, read-out: Minimum Inhibitory Concentration, S. aureus, UC 9213
[5] = UC9912, agar dilution, read-out: Minimum Inhibitory Concentration, S. pneumoniae, UC 9912
[6] = female mice, i.p. infection, drug 1 h and 5 h after infection, six-day survival, probit, read-out: ED50, S. aureus, UC 9213

Row | Structure (SMILES) | MIC [1, 4] [µg/mL] | MIC [2, 5] [µg/mL] | also measured
1 | COC(=O)c1ccn(-c2ccc(N3C[C@H](CNC(C)=O)OC3=O)cc2F)c1 [Example 14, (S)-N-[[3-[3-Fluoro-4-(3-carbomethoxy-1H-pyrrol-1-yl)phenyl]-2-oxo-5-oxazolidinyl]methyl]acetamide] | 2 (≈ 5.33 µM) | 0.25 (≈ 0.666 µM) | –
2 | CON=Cc1ccn(-c2ccc(N3C[C@H](CNC(C)=O)OC3=O)cc2F)c1 [Example 15, (S)-N-[[3-[3-Fluoro-4-(1H-pyrrol-1-yl-3-carboxaldehyde)phenyl]-2-oxo-5-oxazolidinyl]methyl]acetamide, methoxime] | 1 (≈ 2.67 µM) | 0.25 (≈ 0.668 µM) | ED50 [3, 6]: 7.3 mg/kg
3 | CC(=O)NC[C@H]1CN(c2ccc(-n3ccc(C=NO)c3)c(F)c2)C(=O)O1 [Example 16, (S)-N-[[3-[3-Fluoro-4-(3-(hydroxyiminomethyl)-1H-pyrrol-1-yl)phenyl]-2-oxo-5-oxazolidinyl]methyl]acetamide] | 1 (≈ 2.78 µM) | < 0.25 | ED50 [3, 6]: 5.5 mg/kg
4 | CC(=O)NC[C@H]1CN(c2ccc(-n3cc(C(C)=O)nn3)c(F)c2)C(=O)O1 [Example 17, (S)-N-[[3-[3-Fluoro-4-(4-acetyl-1H-1,2,3-triazol-1-yl)phenyl]-2-oxo-5-oxazolidinyl]methyl]acetamide] | 1 (≈ 2.77 µM) | 0.5 (≈ 1.38 µM) | –
5 | CC(=O)NC[C@H]1CN(c2ccc(-n3cc(C(C)O)nn3)c(F)c2)C(=O)O1 (stereo partly drawn) [Example 18, (S)-N-[[3-[3-Fluoro-4-(4-(1-hydroxyethyl)-1H-1,2,3-triazol-1-yl)phenyl]-2-oxo-5-oxazolidinyl]methyl]acetamide] | 4 (≈ 11 µM) | 0.5 (≈ 1.38 µM) | –
6 | CC(=O)NC[C@H]1CN(c2ccc(-n3cc(C(C)=NO)nn3)c(F)c2)C(=O)O1 [Example 19] | 4 (≈ 10.6 µM) | 0.5 (≈ 1.33 µM) | –
7 | COC(=O)c1cn(-c2ccc(N3C[C@H](CNC(C)=O)OC3=O)cc2F)nn1 [Example 20, (S)-N-[[3-[3-Fluoro-4-(4-carbomethoxy-1H-1,2,3-triazol-1-yl)phenyl]-2-oxo-5-oxazolidinyl]methyl]acetamide] | 4 (≈ 10.6 µM) | 1 (≈ 2.65 µM) | –
8 | CC(=O)NC[C@H]1CN(c2ccc(-n3cc(C=O)nn3)c(F)c2)C(=O)O1 [Example 21, (S)-N-[[3-[3-Fluoro-4-(1H-1,2,3-triazol-1-yl-4-carboxaldehyde)phenyl]-2-oxo-5-oxazolidinyl]methyl]acetamide] | 0.5 (≈ 1.44 µM) | 0.25 (≈ 0.72 µM) | –
9 | CC(=O)NC[C@H]1CN(c2ccc(-n3cc(CO)cn3)c(F)c2)C(=O)O1 [Example 22, (S)-N-[[3-[3-Fluoro-4-(4-hydroxymethyl-1H-pyrazol-1-yl)phenyl]-2-oxo-5-oxazolidinyl]methyl]acetamide] | 8 (≈ 23 µM) | 0.5 (≈ 1.44 µM) | –
10 | CCOC(=O)C=Cc1ccn(-c2ccc(N3C[C@H](CNC(C)=O)OC3=O)cc2F)c1 [Example 23, (S)-N-[[3-[3-Fluoro-4-[3-(2-carboethoxyvinyl)-1H-pyrrol-1-yl]phenyl]-2-oxo-5-oxazolidinyl]methyl]acetamide] | 4 (≈ 9.63 µM) | 0.5 (≈ 1.2 µM) | –
11 | CCOC(=O)CCc1ccn(-c2ccc(N3C[C@H](CNC(C)=O)OC3=O)cc2F)c1 [Example 24, (S)-N-[[3-[3-Fluoro-4-[3-(2-carboethoxyethyl)-1H-pyrrol-1-yl]phenyl]-2-oxo-5-oxazolidinyl]methyl]acetamide] | 4 (≈ 9.58 µM) | 0.5 (≈ 1.2 µM) | –
12 | CC(=O)NC[C@H]1CN(c2ccc(-n3ccc(CCCO)c3)c(F)c2)C(=O)O1 [Example 25, (S)-N-[[3-[3-Fluoro-4-[3-(3-hydroxypropyl)-1H-pyrrol-1-yl]phenyl]-2-oxo-5-oxazolidinyl]methyl]acetamide] | 4 (≈ 10.7 µM) | 0.5 (≈ 1.33 µM) | –
13 | CC(=O)NC[C@H]1CN(c2ccc(-n3ccc(CCCNS(C)(=O)=O)c3)c(F)c2)C(=O)O1 [Example 26, (S)-N-[[3-[3-Fluoro-4-[3-(3-methanesulfonylaminopropyl)-1H-pyrrol-1-yl]phenyl]-2-oxo-5-oxazolidinyl]methyl]acetamide] | 8 (≈ 17.7 µM) | 0.5 (≈ 1.1 µM) | –
14 | CN[C@H](CC(C)C)C(=O)N[C@H]1C(=O)N[C@@H](CC(N)=O)C(=O)N[C@H]2C(=O)N[C@H]3C(=O)N[C@H](C(=O)N[C@H](C(=O)O)c4cc(O)cc(O)c4-c4cc3ccc4O)[C@H](O)c3ccc(c(Cl)c3)Oc3cc2cc(c3O[C@@H]2O[C@H](CO)[C@@H](O)[C@H](O)[C@H]2O[C@H]2C[C@](C)(N)[C@H](O)[C@H](C)O2)Oc2ccc(cc2Cl)[C@H]1O [Vancomycin, reference compound] | – | – | ED50 ([3]; read-out: Control, ED50, control drug run alongside each test compound, S. aureus UC 9213, female mice): 2.2 mg/kg; Control, ED50 ([3]; control drug run alongside each test compound, S. aureus UC 9213, female mice, 8640 min): 2.4 mg/kg and 2.0 mg/kg and 1.2 mg/kg; MIC ([1]; UC9213, read-out: Minimum Inhibitory Concentration, S. aureus, UC 9213): 1 µg/mL (≈ 0.69 µM); MIC ([2]; UC9912, read-out: Minimum Inhibitory Concentration, S. pneumoniae, UC 9912): 0.5 µg/mL (≈ 0.345 µM)
